Key:
SARS-CoV-2 = assay type: cell-based; settings: 1-hour contact time at 22 ± 2° C.; versus virus control titer 5.0

Structure (SMILES): CCO [Ethanol]
- LRV (log reduction value) (SARS-CoV-2): >4.3
- Toxicity (highest dilution of the endpoint titer where full (80-100%) cytotoxicity was observed) (Vero 76 cells): None

Source: US20230241126A1 (priority 2022, published 2023)
